# Assay results as given in ChEMBL document CHEMBL4725437, “P450s under Restriction (PURE) Screen Using HepaRG and Primary Human Hepatocytes for Discovery of Novel HBV Antivirals” (ACS Med Chem Lett, 2020).
# Calls of active or inactive are those of the source. The calls are words filed in the database; no cut-off is given here.
# Legend:
# [1] = target: T1, CYP3A4 (Homo sapiens, UniProt P08684); assay: (§1) Inhibition of CYP3A4 in HBV-infected human HepaRG cells at 10 mM using luciferin-IPA as substrate treated for 1 hr on day 5 post-infection followed by removal of media and supplemented with fresh media and further incubated for 3 days then followed by treatment for 1 hr on day 8 post-infection followed by removal of media and supplemented with fresh media and further incubated for 3 days in presence of 50 uM SKF-525A and measured on day 11 post-infection by P450-Glo chemiluminescent assay relative to control; assay type: ADME, tissue-based; conditions: probe luciferin-IPA, with SKF-525A 50 uM
# T1 sequence (P08684 whole entry): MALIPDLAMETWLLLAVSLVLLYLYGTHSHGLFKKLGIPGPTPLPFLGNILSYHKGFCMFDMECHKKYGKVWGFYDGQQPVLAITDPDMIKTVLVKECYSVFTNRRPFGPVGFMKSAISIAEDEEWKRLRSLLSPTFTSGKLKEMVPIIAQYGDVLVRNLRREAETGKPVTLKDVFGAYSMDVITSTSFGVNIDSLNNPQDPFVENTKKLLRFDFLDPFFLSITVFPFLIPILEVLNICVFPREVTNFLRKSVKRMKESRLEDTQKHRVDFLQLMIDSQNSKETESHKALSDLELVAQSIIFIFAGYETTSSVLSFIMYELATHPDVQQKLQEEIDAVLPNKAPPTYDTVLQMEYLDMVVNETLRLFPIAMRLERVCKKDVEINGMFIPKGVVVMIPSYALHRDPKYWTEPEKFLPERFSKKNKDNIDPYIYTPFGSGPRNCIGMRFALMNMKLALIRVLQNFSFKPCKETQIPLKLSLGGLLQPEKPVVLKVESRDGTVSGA
# [2] = target: T2, CYP1A2 (Homo sapiens, UniProt P05177); assay: (§2) Inhibition of CYP1A2 in HBV-infected human HepaRG cells at 10 mM using luciferin-1A2 as substrate treated for 1 hr on day 5 post-infection followed by removal of media and supplemented with fresh media and further incubated for 3 days in presence of 50 uM SKF-525A by P450-Glo chemiluminescent assay relative to control; assay type: ADME, tissue-based; conditions: probe luciferin-1A2, with SKF-525A 50 uM
# T2 sequence (P05177 whole entry): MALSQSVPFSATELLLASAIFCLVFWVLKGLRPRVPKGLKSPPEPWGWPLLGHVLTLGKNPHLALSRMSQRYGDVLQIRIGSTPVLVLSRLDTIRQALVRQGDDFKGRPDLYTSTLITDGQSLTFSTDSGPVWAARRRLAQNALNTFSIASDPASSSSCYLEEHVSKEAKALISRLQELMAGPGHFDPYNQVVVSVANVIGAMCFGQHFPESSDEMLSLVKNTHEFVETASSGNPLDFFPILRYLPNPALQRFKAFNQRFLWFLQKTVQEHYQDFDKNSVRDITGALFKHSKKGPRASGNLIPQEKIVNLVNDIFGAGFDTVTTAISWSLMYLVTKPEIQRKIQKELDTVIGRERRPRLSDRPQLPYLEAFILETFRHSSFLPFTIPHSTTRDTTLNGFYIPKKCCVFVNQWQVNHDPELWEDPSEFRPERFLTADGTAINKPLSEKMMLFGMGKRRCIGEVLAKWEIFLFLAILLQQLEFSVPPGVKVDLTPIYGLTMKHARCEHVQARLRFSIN
# [3] = target: T1, CYP3A4; assay: Inhibition of CYP3A4 in HBV-infected human HepaRG cells at 10 mM using luciferin-IPA as substrate treated for 1 hr on day 5 post-infection followed by removal of media and supplemented with fresh media and further incubated for 3 days by P450-Glo chemiluminescent assay relative to control; assay type: ADME, tissue-based; conditions: probe luciferin-IPA
# [4] = target: T3, Cytochrome P450 2C9 (Homo sapiens, UniProt P11712); assay: as §1, with “CYP2C9” for “CYP3A4”, “0.2 to 20” for “10”, “luciferin-H” for “luciferin-IPA”, “days” for “days in presence of 50 uM SKF-525A”, “assay” for “assay relative to control”; assay type: ADME, tissue-based; conditions: 20000 µM, dose 0.2-20 mM
# T3 sequence (P11712 whole entry): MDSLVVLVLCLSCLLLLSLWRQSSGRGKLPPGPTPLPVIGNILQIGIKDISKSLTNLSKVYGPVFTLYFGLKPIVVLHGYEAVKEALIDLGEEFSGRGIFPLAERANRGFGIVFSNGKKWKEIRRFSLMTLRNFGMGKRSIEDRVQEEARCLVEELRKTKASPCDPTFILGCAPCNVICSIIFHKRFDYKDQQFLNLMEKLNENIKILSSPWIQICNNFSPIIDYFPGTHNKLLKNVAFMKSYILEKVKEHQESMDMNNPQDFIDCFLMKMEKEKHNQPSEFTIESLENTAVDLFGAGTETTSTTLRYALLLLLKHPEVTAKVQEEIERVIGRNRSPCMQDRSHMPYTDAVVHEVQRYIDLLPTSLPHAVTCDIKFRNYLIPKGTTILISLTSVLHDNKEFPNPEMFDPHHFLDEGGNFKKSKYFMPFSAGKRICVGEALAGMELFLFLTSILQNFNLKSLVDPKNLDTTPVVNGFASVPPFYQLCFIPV
# [5] = target: T4, CYP2C9 (Homo sapiens, UniProt P11712); assay: as §1, with “CYP2C9” for “CYP3A4”, “luciferin-H” for “luciferin-IPA”; assay type: ADME, tissue-based; conditions: probe luciferin-H, with SKF-525A 50 uM
# T4 sequence (P11712 whole entry): as above
# [6] = target: T1, CYP3A4; assay: as §2, with “CYP3A4” for “CYP1A2”, “luciferin-IPA” for “luciferin-1A2”; assay type: ADME, tissue-based; conditions: probe luciferin-IPA, with SKF-525A 50 uM
# [7] = target: T5, Cytochrome P450 3A4 (Homo sapiens, UniProt P08684); assay: as §1, with “0.2 to 20” for “10”, “days” for “days in presence of 50 uM SKF-525A”, “assay” for “assay relative to control”; assay type: ADME, tissue-based; conditions: 20000 µM, dose 0.2-20 mM
# T5 sequence (P08684 whole entry): as the sequence (P08684 whole entry) above
# [8] = tested on: Hepatocyte; assay: as §1, with “Cytotoxicity against human primary hepatocytes infected with HBV assessed as reduction” for “Inhibition of CYP3A4”, “cell viability” for “HBV-infected human HepaRG cells”, “mM” for “mM using luciferin-IPA as substrate”, “Celltiter-Glo” for “P450-Glo chemiluminescent”; assay type: cell-based
# [9] = target: T6, Cytochrome P450 1A2 (Homo sapiens, UniProt P05177); assay: as §1, with “CYP1A2” for “CYP3A4”, “primary hepatocytes” for “HepaRG cells”, “0.2 to 20” for “10”, “luciferin-1A2” for “luciferin-IPA”, “days” for “days in presence of 50 uM SKF-525A”, “assay” for “assay relative to control”; assay type: ADME, tissue-based; conditions: heparg, 20000 µM, dose 0.2-20 mM
# T6 sequence (P05177 whole entry): T2 sequence (P05177 whole entry)
# [10] = target: T4, CYP2C9; assay: as §1, with “CYP2C9” for “CYP3A4”, “luciferin-H” for “luciferin-IPA”, “days” for “days in presence of 50 uM SKF-525A”; assay type: ADME, tissue-based; conditions: probe luciferin-H
# [11] = target: T1, CYP3A4; assay: as §1, with “days” for “days in presence of 50 uM SKF-525A”; assay type: ADME, tissue-based; conditions: probe luciferin-IPA
# [12] = target: T3, Cytochrome P450 2C9; assay: as §1, with “CYP2C9” for “CYP3A4”, “primary hepatocytes” for “HepaRG”, “0.2 to 20” for “10”, “luciferin-H” for “luciferin-IPA”, “days” for “days in presence of 50 uM SKF-525A”, “assay” for “assay relative to control”; assay type: ADME, tissue-based, Primary hepatocyte; conditions: 20000 µM, dose 0.2-20 mM
# [13] = target: T2, CYP1A2; assay: as §1, with “CYP1A2” for “CYP3A4”, “luciferin-1A2” for “luciferin-IPA”, “days” for “days in presence of 50 uM SKF-525A”; assay type: ADME, tissue-based; conditions: probe luciferin-1A2
# [14] = tested on: Hepatitis B virus; assay: (§3) Antiviral activity against Hepatitis B virus infected in human HepaRG cells assessed as reduction in HbsAg secretion level at 10 mM treated for 1 hr on day 5 post-infection followed by removal of media and supplemented with fresh media and further incubated for 3 B37days then followed by treatment for 1 hr on day 8 post-infection followed by removal of media and supplemented with fresh media and further incubated for 3 days in presence of 50 uM SKF-525Aand measured on day 11 post-infection by chemiluminescence immunostaining assay; assay type: functional, organism-based
# [15] = tested on: Hepatitis B virus; assay: as §3, with “primary hepatocytes” for “HepaRG cells”, “days” for “B37days”, “SKF-525A and” for “SKF-525Aand”, “assay relative to control” for “assay”; assay type: functional, organism-based; conditions: Primary hepatocyte
# [16] = target: T2, CYP1A2; assay: as §1, with “CYP1A2” for “CYP3A4”, “luciferin-1A2” for “luciferin-IPA”; assay type: ADME, tissue-based; conditions: probe luciferin-1A2, with SKF-525A 50 uM
# [17] = target: T5, Cytochrome P450 3A4; assay: as §1, with “primary hepatocytes” for “HepaRG cells”, “0.2 to 20” for “10”, “days” for “days in presence of 50 uM SKF-525A”, “assay” for “assay relative to control”; assay type: ADME, tissue-based, Primary hepatocyte; conditions: 20000 µM, dose 0.2-20 mM
# [18] = tested on: HepaRG; assay: (§4) Cytotoxicity against human HepaRG cells infected with HBV assessed as reduction in cell viability at 10 mM treated for 1 hr on day 5 post-infection followed by removal of media and supplemented with fresh media and further incubated for 3 days then followed by treatment for 1 hr on day 8 post-infection followed by removal of media and supplemented with fresh media and further incubated for 3 days in presence of 50 uM SKF-525A and measured on day 11 post-infection by Celltiter-Glo assay; assay type: cell-based; conditions: 10000 µM
# [19] = tested on: Hepatitis B virus; assay: as §3, with “primary hepatocytes” for “HepaRG cells”, “days” for “B37days”, “25” for “50”, “SKF-525A and” for “SKF-525Aand”; assay type: functional, Primary hepatocyte; design: scale not given: the % may be the effect or the level left
# [20] = target: T4, CYP2C9; assay: as §2, with “CYP2C9” for “CYP1A2”, “luciferin-H” for “luciferin-1A2”; assay type: ADME, tissue-based; conditions: probe luciferin-H, with SKF-525A 50 uM
# [21] = target: T6, Cytochrome P450 1A2; assay: as §1, with “CYP1A2” for “CYP3A4”, “0.2 to 20” for “10”, “luciferin-1A2” for “luciferin-IPA”, “days” for “days in presence of 50 uM SKF-525A”, “assay” for “assay relative to control”; assay type: ADME, tissue-based; conditions: 20000 µM, dose 0.2-20 mM
# [22] = target: T4, CYP2C9; assay: Inhibition of CYP2C9 in HBV-infected human HepaRG cells at 10 mM using luciferin-H as substrate treated for 1 hr on day 5 post-infection followed by removal of media and supplemented with fresh media and further incubated for 3 days by P450-Glo chemiluminescent assay relative to control; assay type: ADME, tissue-based; conditions: probe luciferin-H
# [23] = target: T2, CYP1A2; assay: Inhibition of CYP1A2 in HBV-infected human HepaRG cells at 10 mM using luciferin-1A2 as substrate treated for 1 hr on day 5 post-infection followed by removal of media and supplemented with fresh media and further incubated for 3 days by P450-Glo chemiluminescent assay relative to control; assay type: ADME, tissue-based; conditions: probe luciferin-1A2
# [24] = tested on: Hepatocyte; assay: as §4, with “primary hepatocytes” for “HepaRG cells”, “25” for “50”; assay type: cell-based; conditions: 10000 µM
# [25] = tested on: HepaRG; assay: as §4, with “0.2 to 20” for “10”, “days” for “days in presence of 50 uM SKF-525A”; assay type: cell-based; conditions: 20000 µM, dose 0.2-20 mM
smiles,measurement,setting,value
Nn1nnc2ccccc21,"inhibition at 2 h, 10000 µM",[1],90.3%
same,"inhibition at 1 h, 10000 µM",[2],39.2%
same,"inhibition at 1 h, 10000 µM",[3],9.6%
same,inhibition (INH),[4],Active
same,"inhibition at 1 h, 10000 µM",[5],82.1%
same,"inhibition at 1 h, 10000 µM",[6],83.3%
same,inhibition (INH),[7],Active
same,Activity,[8],10%
same,inhibition (INH),[9],Active
same,"inhibition at 1 h, 10000 µM",[10],67.5%
same,"inhibition at 1 h, 50 µM",[11],87.8%
same,inhibition (INH),[12],Active
same,"inhibition at 1 h, 10000 µM",[13],91%
same,Activity,[14],inactive
same,Activity,[15],inactive
same,"inhibition at 1 h, 10000 µM",[16],88.8%
same,inhibition (INH),[17],Active
same,Activity,[18],Non-Toxic
same,Activity,[19],20%
same,"inhibition at 1 h, 10000 µM",[20],36.9%
same,inhibition (INH),[21],Active
same,"inhibition at 1 h, 10000 µM",[22],-9.4%
same,"inhibition at 1 h, 10000 µM",[23],37.1%
same,Activity,[24],Non-Toxic
same,Activity,[25],Non-Toxic
